Several values for one entry are separate records, joined by “and”; a condition that tells them apart may be missing. Equal values may be shown once.
How the values were obtained:
Experiment in all cases: biochemical
CAMK2A = CAMK2A (Homo sapiens, UniProt Q9UQM7)
LIMK2 = LIMK2 (Homo sapiens, UniProt P53671)
MAPKAPK5 = target: T1, MAPKAPK5 (Homo sapiens, UniProt Q8IW41)
T1 sequence (Q8IW41 1-473): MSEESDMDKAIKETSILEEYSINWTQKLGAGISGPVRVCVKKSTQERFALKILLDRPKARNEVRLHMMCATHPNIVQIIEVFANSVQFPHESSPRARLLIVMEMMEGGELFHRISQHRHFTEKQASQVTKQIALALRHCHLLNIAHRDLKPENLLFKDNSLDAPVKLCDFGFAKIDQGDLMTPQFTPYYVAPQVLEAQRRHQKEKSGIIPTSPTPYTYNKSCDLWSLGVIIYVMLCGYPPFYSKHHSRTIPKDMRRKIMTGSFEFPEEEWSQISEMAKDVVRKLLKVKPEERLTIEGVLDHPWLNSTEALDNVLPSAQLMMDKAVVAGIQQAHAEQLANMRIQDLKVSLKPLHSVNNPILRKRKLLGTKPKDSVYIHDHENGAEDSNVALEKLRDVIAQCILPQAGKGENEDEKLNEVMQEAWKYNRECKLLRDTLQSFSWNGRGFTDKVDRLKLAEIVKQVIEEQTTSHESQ

NLK = target: T2, NLK (Homo sapiens, UniProt Q9UBE8)
T2 sequence (Q9UBE8 1-527): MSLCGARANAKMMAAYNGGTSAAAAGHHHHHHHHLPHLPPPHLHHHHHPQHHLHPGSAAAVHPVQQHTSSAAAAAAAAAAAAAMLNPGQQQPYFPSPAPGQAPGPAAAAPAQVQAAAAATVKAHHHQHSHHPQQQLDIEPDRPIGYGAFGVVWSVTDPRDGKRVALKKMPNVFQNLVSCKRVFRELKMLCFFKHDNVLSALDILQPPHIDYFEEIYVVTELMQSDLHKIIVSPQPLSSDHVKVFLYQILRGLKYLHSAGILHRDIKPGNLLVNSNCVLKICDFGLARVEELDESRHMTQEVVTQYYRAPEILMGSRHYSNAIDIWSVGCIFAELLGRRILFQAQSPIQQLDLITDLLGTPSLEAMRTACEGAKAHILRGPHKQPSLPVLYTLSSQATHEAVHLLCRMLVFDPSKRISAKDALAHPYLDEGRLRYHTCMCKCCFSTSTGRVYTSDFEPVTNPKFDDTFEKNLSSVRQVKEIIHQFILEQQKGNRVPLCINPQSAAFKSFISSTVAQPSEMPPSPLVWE

PRKAA1 = PRKAA1 (Homo sapiens, UniProt Q13131)
PRKDC = PRKDC (Homo sapiens, UniProt P78527)
TAOK3 = target: T3, TAOK3 (Homo sapiens, UniProt Q9H2K8)
T3 sequence (Q9H2K8 1-898): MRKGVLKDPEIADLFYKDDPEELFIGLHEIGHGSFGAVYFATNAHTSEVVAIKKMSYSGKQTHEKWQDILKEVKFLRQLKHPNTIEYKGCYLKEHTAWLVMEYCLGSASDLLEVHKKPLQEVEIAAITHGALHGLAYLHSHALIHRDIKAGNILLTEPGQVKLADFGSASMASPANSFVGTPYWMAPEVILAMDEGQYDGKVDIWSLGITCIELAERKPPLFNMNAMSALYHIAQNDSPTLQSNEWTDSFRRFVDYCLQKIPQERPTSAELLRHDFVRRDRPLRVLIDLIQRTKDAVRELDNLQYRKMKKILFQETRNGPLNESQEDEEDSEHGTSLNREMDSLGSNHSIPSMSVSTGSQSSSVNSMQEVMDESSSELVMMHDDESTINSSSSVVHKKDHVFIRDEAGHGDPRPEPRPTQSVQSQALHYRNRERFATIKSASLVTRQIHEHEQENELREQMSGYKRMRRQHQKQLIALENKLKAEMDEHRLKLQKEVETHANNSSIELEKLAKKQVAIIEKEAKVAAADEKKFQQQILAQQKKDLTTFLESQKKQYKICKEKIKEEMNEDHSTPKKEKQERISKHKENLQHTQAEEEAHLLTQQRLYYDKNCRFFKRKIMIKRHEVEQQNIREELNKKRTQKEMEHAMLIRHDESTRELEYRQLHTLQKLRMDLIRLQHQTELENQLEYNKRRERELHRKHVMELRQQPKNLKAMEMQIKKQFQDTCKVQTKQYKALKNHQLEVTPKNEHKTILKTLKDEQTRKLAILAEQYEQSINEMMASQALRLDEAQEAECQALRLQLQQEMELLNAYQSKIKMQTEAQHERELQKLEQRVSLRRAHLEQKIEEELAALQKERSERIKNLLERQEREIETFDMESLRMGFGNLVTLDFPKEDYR

MAPK7 = MAPK7 (Homo sapiens, UniProt Q13164)
MINK1 = MINK1 (Homo sapiens, UniProt Q8N4C8)
Sequence of MINK1 (Q8N4C8 whole entry): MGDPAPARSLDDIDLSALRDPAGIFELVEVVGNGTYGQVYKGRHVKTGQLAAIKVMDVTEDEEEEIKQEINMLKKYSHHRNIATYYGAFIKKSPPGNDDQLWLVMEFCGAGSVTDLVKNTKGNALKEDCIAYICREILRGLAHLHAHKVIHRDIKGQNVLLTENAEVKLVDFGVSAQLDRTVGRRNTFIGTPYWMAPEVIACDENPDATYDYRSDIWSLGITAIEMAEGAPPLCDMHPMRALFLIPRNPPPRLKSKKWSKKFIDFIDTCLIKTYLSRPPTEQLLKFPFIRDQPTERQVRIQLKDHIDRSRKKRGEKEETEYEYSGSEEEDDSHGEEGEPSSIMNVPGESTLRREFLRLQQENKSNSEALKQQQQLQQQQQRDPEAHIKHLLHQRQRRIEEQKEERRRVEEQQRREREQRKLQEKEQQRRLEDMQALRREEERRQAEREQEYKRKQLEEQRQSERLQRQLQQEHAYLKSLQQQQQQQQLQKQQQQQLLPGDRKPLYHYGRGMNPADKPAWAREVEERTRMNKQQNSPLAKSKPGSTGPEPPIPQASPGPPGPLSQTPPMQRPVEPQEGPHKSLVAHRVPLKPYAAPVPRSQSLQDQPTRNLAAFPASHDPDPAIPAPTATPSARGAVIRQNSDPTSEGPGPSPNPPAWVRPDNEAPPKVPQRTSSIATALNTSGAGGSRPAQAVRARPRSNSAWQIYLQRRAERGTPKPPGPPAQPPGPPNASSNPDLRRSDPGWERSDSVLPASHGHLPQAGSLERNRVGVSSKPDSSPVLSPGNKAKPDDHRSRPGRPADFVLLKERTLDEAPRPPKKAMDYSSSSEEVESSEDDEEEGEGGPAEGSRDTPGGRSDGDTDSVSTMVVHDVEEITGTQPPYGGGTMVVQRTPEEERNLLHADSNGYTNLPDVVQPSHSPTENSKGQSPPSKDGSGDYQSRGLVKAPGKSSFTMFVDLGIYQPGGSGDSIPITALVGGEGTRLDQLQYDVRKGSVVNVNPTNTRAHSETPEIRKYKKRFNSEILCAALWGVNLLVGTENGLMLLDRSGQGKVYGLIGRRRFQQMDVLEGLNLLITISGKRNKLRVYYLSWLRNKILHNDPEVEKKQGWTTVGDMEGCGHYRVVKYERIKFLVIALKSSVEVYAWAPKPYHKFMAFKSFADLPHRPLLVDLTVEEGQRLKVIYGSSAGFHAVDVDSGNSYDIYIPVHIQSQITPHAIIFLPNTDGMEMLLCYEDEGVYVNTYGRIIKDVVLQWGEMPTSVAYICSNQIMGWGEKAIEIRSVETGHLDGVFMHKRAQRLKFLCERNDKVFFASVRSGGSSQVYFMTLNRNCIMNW

Sequence of PRKAA1 (Q13131 whole entry): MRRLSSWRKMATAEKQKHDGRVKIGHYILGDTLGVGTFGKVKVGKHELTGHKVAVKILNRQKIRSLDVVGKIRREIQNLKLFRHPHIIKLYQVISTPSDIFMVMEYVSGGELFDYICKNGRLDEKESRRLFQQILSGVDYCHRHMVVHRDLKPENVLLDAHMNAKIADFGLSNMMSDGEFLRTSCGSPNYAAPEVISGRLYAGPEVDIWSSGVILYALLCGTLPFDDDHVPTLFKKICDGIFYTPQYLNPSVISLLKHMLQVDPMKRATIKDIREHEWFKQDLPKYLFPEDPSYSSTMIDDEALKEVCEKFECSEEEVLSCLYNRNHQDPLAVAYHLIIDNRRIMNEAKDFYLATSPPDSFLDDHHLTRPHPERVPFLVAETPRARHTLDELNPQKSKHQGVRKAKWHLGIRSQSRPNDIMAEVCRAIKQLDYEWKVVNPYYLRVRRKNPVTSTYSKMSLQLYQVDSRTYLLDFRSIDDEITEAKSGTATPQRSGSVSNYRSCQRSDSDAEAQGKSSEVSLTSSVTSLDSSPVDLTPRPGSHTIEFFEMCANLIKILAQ
Sequence of MAPK7 (Q13164 whole entry): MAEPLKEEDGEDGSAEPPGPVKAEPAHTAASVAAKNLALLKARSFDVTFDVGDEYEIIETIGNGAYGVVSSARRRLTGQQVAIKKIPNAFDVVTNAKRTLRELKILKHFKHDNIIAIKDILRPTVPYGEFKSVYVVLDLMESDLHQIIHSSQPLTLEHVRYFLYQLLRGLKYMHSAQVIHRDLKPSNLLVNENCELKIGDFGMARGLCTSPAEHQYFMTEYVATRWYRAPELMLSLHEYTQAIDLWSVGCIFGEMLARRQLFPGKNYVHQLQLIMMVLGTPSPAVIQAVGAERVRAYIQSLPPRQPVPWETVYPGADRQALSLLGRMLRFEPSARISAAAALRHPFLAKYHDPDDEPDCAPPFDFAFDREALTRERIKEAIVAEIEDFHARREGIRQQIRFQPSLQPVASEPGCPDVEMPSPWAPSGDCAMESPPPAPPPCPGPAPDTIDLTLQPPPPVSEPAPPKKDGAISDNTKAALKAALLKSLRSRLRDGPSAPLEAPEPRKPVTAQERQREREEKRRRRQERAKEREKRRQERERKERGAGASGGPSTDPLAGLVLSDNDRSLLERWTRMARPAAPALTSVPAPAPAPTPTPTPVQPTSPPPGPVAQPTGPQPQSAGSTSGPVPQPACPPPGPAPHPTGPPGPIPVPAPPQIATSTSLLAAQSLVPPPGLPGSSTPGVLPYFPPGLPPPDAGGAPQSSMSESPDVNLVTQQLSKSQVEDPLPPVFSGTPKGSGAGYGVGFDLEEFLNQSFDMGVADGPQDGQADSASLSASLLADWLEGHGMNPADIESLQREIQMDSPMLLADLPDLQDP
Sequence of CAMK2A (Q9UQM7 whole entry): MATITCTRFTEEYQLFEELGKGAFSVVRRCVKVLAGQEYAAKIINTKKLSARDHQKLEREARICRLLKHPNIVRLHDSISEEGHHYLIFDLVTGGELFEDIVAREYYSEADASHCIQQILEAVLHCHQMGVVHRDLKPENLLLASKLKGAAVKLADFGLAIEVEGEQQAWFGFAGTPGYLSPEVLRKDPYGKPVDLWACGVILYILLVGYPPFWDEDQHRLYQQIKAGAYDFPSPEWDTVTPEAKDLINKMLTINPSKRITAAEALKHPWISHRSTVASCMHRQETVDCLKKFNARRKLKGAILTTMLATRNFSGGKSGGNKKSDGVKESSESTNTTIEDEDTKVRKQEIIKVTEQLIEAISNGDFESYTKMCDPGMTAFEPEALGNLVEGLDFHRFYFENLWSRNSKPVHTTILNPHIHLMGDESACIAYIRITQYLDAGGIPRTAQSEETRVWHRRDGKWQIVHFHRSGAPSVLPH
Sequence of LIMK2 (P53671 whole entry): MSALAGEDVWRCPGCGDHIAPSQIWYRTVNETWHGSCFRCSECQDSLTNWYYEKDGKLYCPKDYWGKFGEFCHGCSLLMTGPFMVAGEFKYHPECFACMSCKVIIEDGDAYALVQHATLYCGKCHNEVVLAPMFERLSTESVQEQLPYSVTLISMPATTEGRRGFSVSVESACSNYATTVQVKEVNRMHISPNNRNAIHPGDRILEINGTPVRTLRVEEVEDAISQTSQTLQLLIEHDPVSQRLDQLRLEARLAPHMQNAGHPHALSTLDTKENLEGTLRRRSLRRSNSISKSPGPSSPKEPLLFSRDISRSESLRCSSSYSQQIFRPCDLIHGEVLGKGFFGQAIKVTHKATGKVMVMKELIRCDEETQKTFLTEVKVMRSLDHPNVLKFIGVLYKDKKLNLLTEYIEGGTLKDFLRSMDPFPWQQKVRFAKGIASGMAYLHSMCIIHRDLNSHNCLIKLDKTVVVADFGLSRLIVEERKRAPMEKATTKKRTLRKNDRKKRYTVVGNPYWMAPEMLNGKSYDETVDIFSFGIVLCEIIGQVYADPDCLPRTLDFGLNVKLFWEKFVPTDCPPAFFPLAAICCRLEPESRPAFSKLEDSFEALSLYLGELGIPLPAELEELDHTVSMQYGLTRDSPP

SMILES	IC50 (CAMK2A) [nM]	IC50 (LIMK2) [nM]	IC50 (MAPKAPK5) [nM]	IC50 (NLK)	IC50 (PRKAA1)	IC50 (PRKDC) [nM]	IC50 (TAOK3)	IC50 (MAPK7)	IC50 (MINK1) [nM]
CN(C)CC(O)COc1ccc(Nc2ncc([N+](=O)[O-])c(Nc3ccccc3O)n2)cc1.O=C(O)C(F)(F)F (stereo not drawn) [TCMDC-141399]	> 20000	> 20000	320	> 20000 nM	7100 nM and 7700 nM	> 20000	> 20000 nM		
Cl.NCC1(c2nc(-c3ccc(Cl)c(O)c3)c(-c3ccncc3)[nH]2)CCCCC1 [TCMDC-141154]	> 20000	> 20000	> 20000			> 20000	1800 nM and 910 nM	1100 nM and 1900 nM	1400
CN1CCN(c2ccc(Nc3ncc(C#N)c(Nc4ccccc4C(N)=O)n3)cc2)CC1.Cl [TCMDC-134116]				1600 nM and 1500 nM	38 nM and 49 nM			280 nM and 380 nM	290
